# Entries after “also recorded” stand apart in the source; their conditions may differ.
# Key:
# [1] = test system: GCLC, GCLm and NQO1 genes; test: Expression of Nrf2 regulated antioxidant genes in multiple tissues post TBI by quantitative RT-PCR; type: in vivo, mice; conditions: small intestine, colon, lung, liver, kidney, salivary gland and other organs
# Description: FIG. 5 is a table that quantifies Nrf2 regulated antioxidant defenses in multiple tissues of mice treated with CDDO-Me post TBI.
# [2] = test system: hematopoietic stem cells and progenitors cell; test: TBI induced hematopoietic injury, bone marrow clonogenic assay; type: in vivo, mice; conditions: bone marrow clonogenic assay after TBI, vs vehicle
# Description: FIG. 4 is a graph quantitating TBI induced HP injury in mice after CDDO-me or vehicle treatment as assessed by bone marrow clonogenic assay.
# To assess the protective effect of CDDO-Me on hematopoietic injury, bone marrow was analyzed in a clonogenic assay.
# mice = test: TBI induced gastrointestinal (GI) injury: villi morphology and crypt cell proliferation (BrdU); type: in vivo; conditions: treatment post 1 h TBI, day 9 post TBI, vs vehicle; for mucosal injury (length of villi): histopathology
# Description: FIGS. 3A-3D show TBI induced GI injury in Nrf2+/+ and Nrf2−/− mice after CDDO-me or vehicle treatment. One hour after TBI […] mice (n=10/gp) mice were treated with CDDO-Me. GI injury was assessed by mucosal damage by histopathalogical analysis (FIGS. 3A and 3B) and crypt cell proliferation by BrdU immunohistochemistry staining (FIGS. 3C and 3D).
# To analyze the GI injury, villi morphology and proliferation of crypt cells were quantified by immunohistochemistry and BrdU labeling on day 9 post TBI.
# Nrf2+/+ mice = test: TBI induced mortality in Nrf2+/+ mice after CDDO-Me treatment; type: in vivo; conditions: for mortality: survival monitored for 30 days, vehicle 100% mortality
# Description: (§1) FIG. 2 includes three graphs, which provide proof of concept studies with Nrf2 activator, showing quantitation of TBI induced Mortality in Nrf2−/− mice and Nrf2+/+ mice after CDDO-me (small molecule Nrf2 activator) or vehicle treatment. One hour and 24 hours after TBI mice (n=10/gp) mice were treated with CDDO-Me. Survival was monitored for 30 days.
# (§2) To determine if pharmacological activation of Nrf2 improves survival following TBI, we treated Nrf2+/+ and Nrf2−/− with the small molecule, CDDO-Me, a potent Nrf2 activator 1 hour and 24 hours after TBI.
# Nrf2−/− mice = test: TBI induced mortality in Nrf2-/- mice after CDDO-Me treatment; type: in vivo; conditions: treated 1 hour post-TBI
# Description: as §1, §2
structure (smiles),measurement,setting,value
COC(=O)[C@]12CCC(C)(C)C[C@H]1[C@H]1C(=O)C=C3[C@@]4(C)C=C(C#N)C(=O)C(C)(C)[C@@H]4CC[C@@]3(C)[C@]1(C)CC2 [CDDO-Me],"expression of antioxidant genes (GCLC, GCLm, NQO1)",[1],markedly upregulated antioxidant genes
same,protection of hematopoietic stem cells and progenitors (granulocyte/macrophage colony forming cells),[2],markedly protected hematopoietic stem cells and progenitors cell
same,crypt cell proliferation (BrdU staining),mice; BrdU immunohistochemistry,significantly mitigated loss of crypt cells; also recorded: marked improvement in crypt cell proliferation
same,mucosal injury (length of villi),mice,significantly mitigated reduction in gastrointestinal villi
same,mucosal injury (length of villi),mice; listed as CDDO-me,markedly ameliorated mucosal injury
same,TBI induced mortality,"Nrf2+/+ mice; treated 1 hour and 24 hours after TBI, vs vehicle",markedly inhibited TBI induced mortality
same,mortality,Nrf2+/+ mice; treated 1 hour post-TBI,0%
same,mortality,Nrf2+/+ mice; treated 24 hours post-TBI,25%
same,survival following TBI,Nrf2−/− mice,failed to improve survival

# Reference: patent US20120029071A1, “COMPOSITIONS AND METHODS FOR TREATING OR PREVENTING RADIATION INJURY” (THE JOHNS HOPKINS UNIVERSITY, priority 2008, published 2012)
